Reference: US6376666B1 (Nauchno-Issledovatelsky Institut Farmakologii Rossiiskoi …, priority 1994, dated 2002)

Tests used:
Assay type in all cases: in vivo
Balb/c mice = test: open-field test, Balb/c mice (passive type of emotional-stress reaction); design: key to Total activity: sum of all locomotor activity counts (crossings + rearings) in 3 min; conditions: for Central activity (crossings) / Number of defecations / Peripheral activity (crossings) / Total activity / Vertical activity (rearings): M ± mx; for effect on the behavior (locomotor activity) of Balb/c mice in open-field test, in words: i.p., screening
Text: (§1) The main point of this approach consists in comparative analysis of the behavioural effects of tested compounds in two inbred strains of mice Balb/c and C57B1/6 with different hereditary types of emotional-stress reactions (ESR). The anxiolytic effect was estimated as the activation of the locomotor activity of animals with “passive” type of ESR (Balb/c mice). The main index describing the sedative properties of tested drugs was the inhibition of the locomotor activity of mice with “active” type of ESR (C57B1/6 strain). The anxioselectivity was evaluated according to coincidence of doses range which activated or inhibited the behavior of mice of different strains. Earlier this approach has been successfully used for estimation of anxioselective activity of such known drugs as phenazepam [Seredenin S. B. et al., Bull.Exp.Biol.Med., 1979, v.88, N7, p.38; Seredenin S. B. et al., Ann.Inst.Super.Sanita, 1990, v.26, N1, p.81-88], mexidol [Seredenin S. B. et al., Khimiko-Farmatsevt.Zhurnal, 1987, N2, p.134; Vironina T. A., Seredenin S. B., Ann.Inst.Super.Sanita, 1988, v.24, N3, p.461-466] and gidazepam [Seredenin S. B. et al., in: “Gidazepam” Kiev, Naukova Dumka, 1992, p.92; Seredenin S. B., Blednov Yu. A., Phys.Chem.Biol.Med., 1993, v.1, N1, p.53-60].
(§2) Male C57B1/6 and Balb/c mice (“Stolbovaya” animal farm), weighing 20-22 g were used. The animals were housed in a separate animal room in groups of ten and maintained on 12 h light-dark cycle (light from 8.00 till 20.00) with free access to standard food and water during two weeks before experiment. Testing was performed between 9.00 and 13.00. Every used compound was administered intraperitoneally in water solutions 30 min before testing (0,1 ml solution per 10 g of weight). The “open-field” apparatus consisted of cylinder closed from one end, illuminated by four 75 W lamps fixed to the walls 100 cm above the floor. The “open-field” apparatus was 100 cm in diameter and white-painted; the floor was marked with 3 black circles and some radial lines divided the floor into 16 peripheral and 8 central segments. 30 min after injection each animal was placed in the same peripheral square on the floor for 3 min of testing after 1 min exposure in the dark chamber. The following behavior variables were recorded: 1) the number of crossings in the peripheral area (peripheral activity); 2) the number of crossings in the central segments (central activity); 3) the number of rearings (vertical activity); 4) the emotionality was measured as the number of defecations during the test. The sum of all types of locomotor activity was marked as total activity. The t-Student test was used for statistical analysis.

C57B1/6 mice = test: open-field test, C57B1/6 mice (active type of emotional-stress reaction); design: key to Total activity: sum of all locomotor activity counts (crossings + rearings) in 3 min; conditions: for effect on locomotor activity of C57B1/6 mice in open-field test, in words: i.p., doses that activate Balb/c mice; for Central activity (crossings) / Peripheral activity (crossings) / Total activity / Vertical activity (rearings): M ± mx
Text: as §1, §2

cats = test: hemodynamics and activity of intact heart in cats under anesthesia; conditions: cats i.v.; for effect on heart rate, in words: doses of 0,5 mg/kg-2,0 mg/kg
Description: The effects of compounds on the hemodynamics and activity of intact heart were studied in cats under anesthesia. The experiments were carried out under conditions of open chest. The phase curve of aortic blood flow was the main index of cardiac activity. The compounds were administered i.v. in physiological solution. The t-Student' test was used to estimate the statistical significance.

Cc1cc2nc(SCCN3CCCC3)[nH]c2cc1C [XIII, 2-[2-(Pyrrolidino)ethylthio]-5,6-dimethylbenzimidazole]
Central activity (crossings) (Balb/c mice; 0.5 mg/kg i.p.): 4.3 ± 4.1 | Number of defecations (Balb/c mice; 0.5 mg/kg i.p.): 2.9 ± 0.6 | Peripheral activity (crossings) (Balb/c mice; 0.5 mg/kg i.p.): 32.0 ± 5.7 | Total activity (Balb/c mice; 0.5 mg/kg i.p.): 36.3 ± 9.8 | Central activity (crossings) (Balb/c mice; 1.0 mg/kg i.p.): 0.8 ± 0.5 | Number of defecations (Balb/c mice; 1.0 mg/kg i.p.): 1.0 ± 0.5 | Peripheral activity (crossings) (Balb/c mice; 1.0 mg/kg i.p.): 80.0 ± 11.2 | Total activity (Balb/c mice; 1.0 mg/kg i.p.): 80.8 ± 11.7 | Number of defecations (Balb/c mice; 5.0 mg/kg i.p.): 1.6 ± 0.7 | Peripheral activity (crossings) (Balb/c mice; 5.0 mg/kg i.p.): 69.0 ± 13.2 | Total activity (Balb/c mice; 5.0 mg/kg i.p.): 69.0 ± 13.2 | Central activity (crossings) (Balb/c mice; 50.0 mg/kg i.p.): 0.7 ± 0.5 | Peripheral activity (crossings) (Balb/c mice; 50.0 mg/kg i.p.): 27.7 ± 6.2 | Total activity (Balb/c mice; 50.0 mg/kg i.p.): 28.4 ± 6.7 | effect on the behavior (locomotor activity) of Balb/c mice in open-field test, in words (Balb/c mice): able to activate the behavior of Balb/c mice | effect on locomotor activity of C57B1/6 mice in open-field test, in words (C57B1/6 mice): without any changes in locomotor activity

CN(C)CCSc1nc2ccccc2n1Cc1ccccc1 [XVIII, 1-Benzyl-2-[2-(dimethylamino)ethylthuo]benzimidazole]
effect on parameters of hemodynamics and heart activity, in words (cats): no effects on the parameters of hemodynamics and heart activity

Cc1cc2nc(SCCCN3CCN(C)CC3)[nH]c2cc1C [XVII, 2-[3-(4-Methylpyperazino)propylthio]-5,6-dimethylbenzimidazole]
Central activity (crossings) (Balb/c mice; 0.1 mg/kg i.p.): 0.5 ± 0.5 | Number of defecations (Balb/c mice; 0.1 mg/kg i.p.): 2.0 ± 0.8 | Peripheral activity (crossings) (Balb/c mice; 0.1 mg/kg i.p.): 4.0 ± 1.0 | Total activity (Balb/c mice; 0.1 mg/kg i.p.): 4.5 ± 1.5 | Number of defecations (Balb/c mice; 1.0 mg/kg i.p.): 0.1 ± 0.1 | Peripheral activity (crossings) (Balb/c mice; 1.0 mg/kg i.p.): 7.7 ± 1.9 | effect on the behavior (locomotor activity) of Balb/c mice in open-field test, in words (Balb/c mice): inhibited the locomotor activity | effect on heart rate, in words (cats): small and short bradycardia

CCOc1ccc2nc(SCCN(CC)CC)[nH]c2c1 [VI, 2-2-[(Diethylamino)ethylthio]-5-ethoxybenzo-imidazole]
Peripheral activity (crossings) (Balb/c mice; 0.1 mg/kg i.p., 0.1 mg/kg): 3.0 ± 1.8 | Total activity (Balb/c mice; 0.1 mg/kg i.p., 0.1 mg/kg): 3.0 ± 1.8 | Vertical activity (rearings) (Balb/c mice; 1.0 mg/kg i.p.): 0.4 ± 0.4 | Peripheral activity (crossings) (Balb/c mice; 1.0 mg/kg i.p., 1 mg/kg): 3.3 ± 1.3 | Total activity (Balb/c mice; 1.0 mg/kg i.p., 1 mg/kg): 3.7 ± 1.7 | Peripheral activity (crossings) (Balb/c mice; 10.0 mg/kg i.p., 10 mg/kg): 3.1 ± 0.8 | Total activity (Balb/c mice; 10.0 mg/kg i.p., 10 mg/kg): 3.1 ± 0.8 | effect on the behavior (locomotor activity) of Balb/c mice in open-field test, in words (Balb/c mice): inhibited the locomotor activity | effect on heart rate, in words (cats): small and short bradycardia

Cc1cc2nc(SCCCN(C)C)[nH]c2cc1C [XVI, 2-[3-(Dimethylamino)propylthio]-5,6-dimethylbenzimidazole]
effect on the behavior (locomotor activity) of Balb/c mice in open-field test, in words (Balb/c mice): inhibited the locomotor activity | effect on parameters of hemodynamics and heart activity, in words (cats): no effects on the parameters of hemodynamics and heart activity

C=CCSc1nc2cc(C)c(C)cc2[nH]1 [III, 2-Allylthio-5,6-dimethylbenzimidazole]
Central activity (crossings) (Balb/c mice; 0.1 mg/kg i.p.): 3.3 ± 2.0 | Number of defecations (Balb/c mice; 0.1 mg/kg i.p.): 2.5 ± 0.9 | Peripheral activity (crossings) (Balb/c mice; 0.1 mg/kg i.p.): 28.1 ± 5.8 | Total activity (Balb/c mice; 0.1 mg/kg i.p.): 32.1 ± 7.9 | Vertical activity (rearings) (Balb/c mice; 0.1 mg/kg i.p.): 0.6 ± 0.4 | Central activity (crossings) (Balb/c mice; 1.0 mg/kg i.p.): 0.6 ± 0.3 | Number of defecations (Balb/c mice; 1.0 mg/kg i.p.): 2.5 ± 0.7 | Peripheral activity (crossings) (Balb/c mice; 1.0 mg/kg i.p.): 35.8 ± 6.1 | Total activity (Balb/c mice; 1.0 mg/kg i.p.): 36.4 ± 6.4 | Central activity (crossings) (Balb/c mice; 5.0 mg/kg i.p.): 0.3 ± 0.3 | Number of defecations (Balb/c mice; 5.0 mg/kg i.p.): 3.0 ± 0.7 | Peripheral activity (crossings) (Balb/c mice; 5.0 mg/kg i.p.): 46.8 ± 9.9 | Total activity (Balb/c mice; 5.0 mg/kg i.p.): 47.5 ± 10.3 | Vertical activity (rearings) (Balb/c mice; 5.0 mg/kg i.p.): 0.4 ± 0.3 | Central activity (crossings) (Balb/c mice; 10.0 mg/kg i.p.): 3.3 ± 2.1 | Number of defecations (Balb/c mice; 10.0 mg/kg i.p.): 2.0 ± 0.7 | Peripheral activity (crossings) (Balb/c mice; 10.0 mg/kg i.p.): 56.1 ± 12.2 | Total activity (Balb/c mice; 10.0 mg/kg i.p.): 59.4 ± 13.8 | Number of defecations (Balb/c mice; 20.0 mg/kg i.p.): 1.5 ± 0.7 | Peripheral activity (crossings) (Balb/c mice; 20.0 mg/kg i.p.): 24.0 ± 11.5 | Total activity (Balb/c mice; 20.0 mg/kg i.p.): 24.1 ± 11.5 | effect on the behavior (locomotor activity) of Balb/c mice in open-field test, in words (Balb/c mice): able to activate the behavior of Balb/c mice | Central activity (crossings) (C57B1/6 mice; 0.1 mg/kg i.p.): 42.1 ± 4.8 | Peripheral activity (crossings) (C57B1/6 mice; 0.1 mg/kg i.p.): 109.4 ± 8.3 | Total activity (C57B1/6 mice; 0.1 mg/kg i.p.): 170.9 ± 10.0 | Vertical activity (rearings) (C57B1/6 mice; 0.1 mg/kg i.p.): 19.4 ± 3.4 | Central activity (crossings) (C57B1/6 mice; 0.5 mg/kg i.p.): 42.1 ± 7.5 | Peripheral activity (crossings) (C57B1/6 mice; 0.5 mg/kg i.p.): 118.4 ± 9.0 | Total activity (C57B1/6 mice; 0.5 mg/kg i.p.): 184.6 ± 8.6 | Vertical activity (rearings) (C57B1/6 mice; 0.5 mg/kg i.p.): 22.6 ± 2.0 | Central activity (crossings) (C57B1/6 mice; 1.0 mg/kg i.p.): 35.9 ± 7.6 | Peripheral activity (crossings) (C57B1/6 mice; 1.0 mg/kg i.p.): 107.8 ± 7.4 | Total activity (C57B1/6 mice; 1.0 mg/kg i.p.): 165.9 ± 13.5 | Vertical activity (rearings) (C57B1/6 mice; 1.0 mg/kg i.p.): 22.3 ± 3.8 | Central activity (crossings) (C57B1/6 mice; 5.0 mg/kg i.p.): 28.8 ± 6.9 | Peripheral activity (crossings) (C57B1/6 mice; 5.0 mg/kg i.p.): 130.8 ± 16.8 | Total activity (C57B1/6 mice; 5.0 mg/kg i.p.): 177.8 ± 20.7 | Vertical activity (rearings) (C57B1/6 mice; 5.0 mg/kg i.p.): 18.6 ± 2.7 | Central activity (crossings) (C57B1/6 mice; 10.0 mg/kg i.p.): 23.6 ± 5.3 | Peripheral activity (crossings) (C57B1/6 mice; 10.0 mg/kg i.p.): 118.0 ± 7.9 | Total activity (C57B1/6 mice; 10.0 mg/kg i.p.): 154.4 ± 13.3 | Vertical activity (rearings) (C57B1/6 mice; 10.0 mg/kg i.p.): 12.9 ± 1.8 | Central activity (crossings) (C57B1/6 mice; 50.0 mg/kg i.p.): 24.0 ± 2.7 | Peripheral activity (crossings) (C57B1/6 mice; 50.0 mg/kg i.p.): 105.2 ± 11.9 | Total activity (C57B1/6 mice; 50.0 mg/kg i.p.): 141.3 ± 11.7 | Vertical activity (rearings) (C57B1/6 mice; 50.0 mg/kg i.p.): 12.1 ± 1.3 | effect on locomotor activity of C57B1/6 mice in open-field test, in words (C57B1/6 mice): without any changes in locomotor activity

CCOc1ccc2nc(SCCN3CCCCC3)[nH]c2c1 [XI]
effect on the behavior (locomotor activity) of Balb/c mice in open-field test, in words (Balb/c mice): neither activatory nor inhibitory effects | effect on parameters of hemodynamics and heart activity, in words (cats): no effects on the parameters of hemodynamics and heart activity

c1ccc(CCn2c(SCCN3CCOCC3)nc3ccccc32)cc1 [XXII]
effect on the behavior (locomotor activity) of Balb/c mice in open-field test, in words (Balb/c mice): neither activatory nor inhibitory effects | effect on parameters of hemodynamics and heart activity, in words (cats): no effects on the parameters of hemodynamics and heart activity

CCN(CC)CCSc1nc2ccccc2n1Cc1ccccc1 [XIX, 1-Benzyl-2-[2-(diethylarnino)ethylthio]benzimidazole]
effect on the behavior (locomotor activity) of Balb/c mice in open-field test, in words (Balb/c mice): inhibited the locomotor activity | effect on parameters of hemodynamics and heart activity, in words (cats): no effects on the parameters of hemodynamics and heart activity

CCN(CC)CCSc1nc2ccccc2n1CCc1ccccc1 [XXI, 1-(β-Phenylethyl)-2-[2-(diethylamino)ethylthio]benzimidazole]
effect on the behavior (locomotor activity) of Balb/c mice in open-field test, in words (Balb/c mice): neither activatory nor inhibitory effects | effect on heart rate, in words (cats): small and short bradycardia
